Test results published in PubChem BioAssay AID1963866 (Molecular Pharmacology Branch, DTP, NCI, 2024).

Test system: PDC KRAS tumor spheroids with HUVEC/MSC, viability
Test: Anticancer human tumor 349418-098-R-PDC patient-derived lung adenocarcinoma cell line growth inhibition [KRAS2]
Details: for IC50: curve of first compound; for viability, T/C: stronger effect = lower value
Method in brief: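 KRAS-mutant tumor cells were grown as spheroids with HUVEC endothelial cells and human MSCs as stroma. Targeted agents were tested alone and with KRAS pathway inhibitors. Doses started at or near clinical Cmax, or 10 microM, descending half-log.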

[1] = second compound 0.1 µM, first compound 0.0316 µM
[2] = second compound 0.1 µM, first compound 0.1 µM
[3] = second compound 0.1 µM, first compound 0.316 µM
[4] = second compound 0.1 µM, first compound 1 µM
[5] = second compound 0.1 µM, first compound 3.16 µM
[6] = second compound 0.1 µM, first compound 10 µM
[7] = second compound 0.316 µM, first compound 0.0316 µM
[8] = second compound 0.316 µM, first compound 0.1 µM
[9] = second compound 0.316 µM, first compound 0.316 µM
[10] = second compound 0.316 µM, first compound 1 µM
[11] = second compound 0.316 µM, first compound 3.16 µM
[12] = second compound 0.316 µM, first compound 10 µM
[13] = second compound 1 µM, first compound 0.0316 µM
[14] = second compound 1 µM, first compound 0.1 µM
[15] = second compound 1 µM, first compound 0.316 µM
[16] = second compound 1 µM, first compound 1 µM
[17] = second compound 1 µM, first compound 3.16 µM
[18] = second compound 1 µM, first compound 10 µM
[19] = second compound 3.16 µM, first compound 0.0316 µM
[20] = second compound 3.16 µM, first compound 0.1 µM
[21] = second compound 3.16 µM, first compound 0.316 µM
[22] = second compound 3.16 µM, first compound 1 µM
[23] = second compound 3.16 µM, first compound 3.16 µM
[24] = second compound 3.16 µM, first compound 10 µM
[25] = second compound 10 µM, first compound 0.0316 µM
[26] = second compound 10 µM, first compound 0.1 µM
[27] = second compound 10 µM, first compound 0.316 µM
[28] = second compound 10 µM, first compound 1 µM
[29] = second compound 10 µM, first compound 3.16 µM
[30] = second compound 10 µM, first compound 10 µM
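Also: spheroids exposed to compounds for seven days before readout.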

Row | Structure (SMILES) | IC50 (second compound 0.1 µM) | IC50 (second compound 0.316 µM) | IC50 (second compound 1 µM) | IC50 (second compound 3.16 µM) | IC50 (second compound 10 µM) | viability, T/C [1] | viability, T/C [2] | viability, T/C [3] | viability, T/C [4] | viability, T/C [5] | viability, T/C [7] | viability, T/C [8] | viability, T/C [9] | viability, T/C [10] | viability, T/C [11] | viability, T/C [13] | viability, T/C [14] | viability, T/C [15] | viability, T/C [16] | viability, T/C [17] | further results
1 | COc1cc2nccc(Oc3ccc(NC(=O)C4(C(=O)Nc5ccc(F)cc5)CC4)cc3)c2cc1OC + CC1OCC2(CCN(c3cnc(Sc4ccnc(N)c4Cl)c(N)n3)CC2)C1N | 1.7 µM | 1.67 µM | 1.53 µM | 1.43 µM | 1.35 µM | 113% | 104% | 99.9% | 78.6% | 12.3% | 108% | 98.4% | 96.1% | 79.1% | 10.4% | 104% | 114% | 99.5% | 68.7% | 14.3% | viability, T/C [6]: 21.2%; viability, T/C [12]: 17.9%; viability, T/C [18]: 22.5%; viability, T/C [19]: 94.4%; viability, T/C [20]: 99.7%; viability, T/C [21]: 85.6%; viability, T/C [22]: 66.1%; viability, T/C [23]: 13.7%; viability, T/C [24]: 15.5%; viability, T/C [25]: 86.4%; viability, T/C [26]: 80.9%; viability, T/C [27]: 72.6%; viability, T/C [28]: 61.5%; viability, T/C [29]: 16.8%; viability, T/C [30]: 17.3%
2 | O=C(c1cc(Cc2n[nH]c(=O)c3ccccc23)ccc1F)N1CCN(C(=O)C2CC2)CC1 + COc1cc2nc(C)nc(NC(C)c3cc(N)cc(C(F)(F)F)c3)c2cc1OC1CCOC1 | 5.37 µM | 4.26 µM | 4.96 µM | 1.94 µM | 0.0873 µM | 89.4% | 96% | 85.9% | 85.6% | 64.8% | 92.7% | 94.8% | 77.5% | 87.6% | 57.8% | 110% | 105% | 75.8% | 93.8% | 61.5% | viability, T/C [6]: 32.3%; viability, T/C [12]: 27.5%; viability, T/C [18]: 30.2%; viability, T/C [19]: 93.2%; viability, T/C [20]: 76.6%; viability, T/C [21]: 80.5%; viability, T/C [22]: 60.1%; viability, T/C [23]: 41.1%; viability, T/C [24]: 23.8%; viability, T/C [25]: 89.9%; viability, T/C [26]: 36.1%; viability, T/C [27]: 35.3%; viability, T/C [28]: 22.2%; viability, T/C [29]: 10.2%; viability, T/C [30]: 9.73%
3 | CC(=O)OC12COC1CC(O)C1(C)C(=O)C(O)C3=C(C)C(OC(=O)C(O)C(NC(=O)OC(C)(C)C)c4ccccc4)CC(O)(C(OC(=O)c4ccccc4)C21)C3(C)C (stereo not given) + CC1OCC2(CCN(c3cnc(Sc4ccnc(N)c4Cl)c(N)n3)CC2)C1N | < 0.01 µM | < 0.01 µM | < 0.01 µM | < 0.01 µM | < 0.01 µM | 28.1% | 21.9% | 27.2% | 28.7% | 36.1% | 22.9% | 29.1% | 27.9% | 29.7% | 35.2% | 26.9% | 27.5% | 27.6% | 33.9% | 43.5% | viability, T/C (second compound 0.1 µM, first compound 0.01 µM): 18%; viability, T/C (second compound 0.316 µM, first compound 0.01 µM): 21.6%; viability, T/C (second compound 1 µM, first compound 0.01 µM): 22.4%; viability, T/C (second compound 3.16 µM, first compound 0.01 µM): 21.5%; viability, T/C [19]: 28.4%; viability, T/C [20]: 22.5%; viability, T/C [21]: 25.4%; viability, T/C [22]: 26%; viability, T/C [23]: 28.3%; viability, T/C (second compound 10 µM, first compound 0.01 µM): 19.9%; viability, T/C [25]: 24.5%; viability, T/C [26]: 28.3%; viability, T/C [27]: 24.1%; viability, T/C [28]: 31.7%; viability, T/C [29]: 38.5%
